Data published in patent US6403554B2, “Polyunsaturated fatty acid derivatives and their use” (Ardenia Investments Ltd., priority 1998, dated 2002).
“Also recorded” adds a separate entry of the source.

System: antibody-forming cells (AFC) in the spleen
Experiment: Influence of compound on humoral immune response to sheep erythrocytes, C57B1/6 female mice (AFC in spleen, hemagglutinins)
Type: in vivo
Conditions: for Amount of antibody-forming cells per 10^6 spleen cells / Amount of antibody-forming cells per spleen / Effect on relative amount of AFC (per 10^6 spleen cells) / Effect on total AFC amount (per spleen) / Effect on hemagglutinin titers / Spleen index / Amount of hemagglutinins: i.v.; for Amount of antibody-forming cells per 10^6 spleen cells / Amount of antibody-forming cells per spleen / Effect on relative amount of AFC (per 10^6 spleen cells) / Effect on total AFC amount (per spleen): 5th day; for Amount of antibody-forming cells per 10^6 spleen cells / Amount of antibody-forming cells per spleen: M ± SEM; for Effect on relative amount of AFC (per 10^6 spleen cells) / Effect on total AFC amount (per spleen) / Effect on hemagglutinin titers: vs control; for Spleen index: with SRBC i.p.; for Amount of hemagglutinins: serum
Protocol: The increase was calculated as compared with the amount of cells in the animals immunised only with sheep erythrocytes.
0.15 ml of compound 10 was administered intravenously to 6 mice females of CS7B1/6 line (weight 18-22 g) in doses of 45.5, 91 and 136.5 μg of compound 10 per capita for each testing group according to the dose. Simultaneously, a suspension of 5·10^7 sheep erythrocytes was injected intraperitoneally (0.2 ml per capita). Mice in the control group were injected intravenously with equal volume of saline. The effects of compound 10 on humoral immune response were analyzed both by counting the quantity of AFC in the spleen according to Cunningham (per 10^6 spleen cells and per spleen) and estimating the titers of hemagglutining antibodies in serum of the animals (Cunningham A. J., Nature, 1965, Vol.207, No 5001. P.1106-1107), while the titers of hemagglutinating antibodies were evaluated according to litterature (Evans J. et al., Cell, 1974; Vol 3., p.153-158, Feizi T., Menger E., Transfusion, 1970, Vol. 10, p.33-35,).
(§1) 0.15 ml of compound 11 was administered intravenously to 6 female mice of the C57B1/6 line (weight 18-22 g) in doses of 45.5, 91 and 136.5 μg of compound 11 per capita for each testing group according to the dose. Simultaneously, a suspension of 5·10^7 sheep erytrocytes was injected intraperitoneally (0.2 ml per capita). Mice in the control group were injected intravenously with an equal volume of saline. The effects of compound 11 on humoral immune response was analysed both by counting the quantity of AFC in the spleen according to Cunningham (per 10^6 spleen cells and per spleen) and estimating the titers of hemagglutining antibodies in serum of the animals.
as §1, with “12” for “11”, “erythrocytes” for “erytrocytes”, “analyzed” for “analysed”
as §1, with “compound 8” for “compound 11”, “sheep erythrocytes” for “sheep erytrocytes”, “Mice of” for “Mice in”, “response were analyzed” for “response was analysed”
0.15 ml of compound 3 was administered intravenously to 6 female mice of the C57B1/6 line (weight 18-22 g) in doses of 45.5, 91 and 136.5 μg of compound 3 per capita for each testing group according to the dose. Simultaneously, a suspension of 5·10^7 sheep erytrocytes was injected intraperitoneally (0.2 ml per capita). Mice of the control group were injected intravenously with equal volume of saline.

SMILES | Immunogenic activity (45.5 μg/mouse) | Amount of antibody-forming cells per 10^6 spleen cells (45.5 μg/mouse) | Amount of antibody-forming cells per spleen (45.5 μg/mouse) | Effect on relative amount of AFC (per 10^6 spleen cells) (45.5 μg/mouse) | Effect on total AFC amount (per spleen) (45.5 μg/mouse) | Effect on hemagglutinin titers (45.5 μg/mouse) | Spleen index (45.5 μg/mouse) | immunostimulating effect in vivo in micelle form (91 μg/mouse) | Amount of antibody-forming cells per 10^6 spleen cells (91 μg/mouse) | Amount of antibody-forming cells per spleen (91 μg/mouse) | Effect on hemagglutinin titers (91 μg/mouse) | Spleen index (91 μg/mouse) | Amount of antibody-forming cells per 10^6 spleen cells (136.5 μg/mouse) | Amount of antibody-forming cells per spleen (136.5 μg/mouse) | Effect on hemagglutinin titers (136.5 μg/mouse) | Spleen index (136.5 μg/mouse) | Effect on relative amount of AFC (per 10^6 spleen cells) (91 μg/mouse) | Effect on total AFC amount (per spleen) (91 μg/mouse) | immunostimulating action (136.5 μg/mouse) | Immunogenic activity (45.5 and 91 μg/mouse) | also measured
CC1=C(/C=C/C(C)=C/C=C/C(C)=C/C(=O)N[C@@H](Cc2ccc(OP(=O)(O)O)cc2)C(=O)O)C(C)(C)CCC1 (stereo in doubt) [Compound 4, N-(all-trans-Retinoyl)-O-phospho-L-tyrosine] | no immunogenic activity | 405.0±47.9 cells per 10^6 spleen cells | 55.0±6.7 × 10^3 | −0.3 p >0.05% | −8.9 p > 0.05% | −3.2 p > 0.05% | 6.6 ± 0.5 10^−3 | display immunostimulating effect in vivo | 692.9±44.8 cells per 10^6 spleen cells | 87.6±4.3 × 10^3 | +4.8 p > 0.05% | 6.3 ± 0.4 10^−3 | 1354.3±99.9 cells per 10^6 spleen cells | 138.9±10.0 × 10^3 |  |  |  |  |  |  | immunostimulating action (91 and 136.5 μg/mouse): high immunostimulating action
CC1=C(/C=C/C(C)=C/C=C/C(C)=C\C(=O)NCCOP(=O)(O)O)C(C)(C)CCC1 [Compound 1a, N-(13cis-Retinoyl)-O-phospho-2-aminoethanol] | no immunogenic activity | 815.8±70.9 cells per 10^6 spleen cells | 104.6±10.7 × 10^3 | +5.6 p > 0.05% | +16.4 p > 0.05% | −1,3 p > 0.05% | 6.1 ± 0.2 10^−3 | display immunostimulating effect in vivo | 997.2±43.4 cells per 10^6 spleen cells | 114.5±8.2 × 10^3 | −1,3 p > 0.05% | 6.2 ± 0.2 10^−3 | 1176.9±58.5 cells per 10^6 spleen cells | 149.4±9.4 × 10^3 | +6,5 p > 0.05% | 6.9 ± 0.3 10^−3 |  |  |  |  | immunostimulating action (91 and 136.5 μg/mouse): marked immunostimulating action
CC/C=C\C/C=C\C/C=C\C/C=C\C/C=C\C/C=C\CCC(=O)N[C@H](C(=O)O)[C@@H](C)OP(=O)(O)O [Compound 11, N-(cis-4,7,10,13,16,19-docosahexaenoyl)-O-phospho-L-threonine] |  | 676.8±77.1 cells per 10^6 spleen cells | 85.9±8.3 × 10^3 | −15.3 p > 0.05% | −15.0 p > 0.05% | 0% | 6.2 ± 0.2 10^−3 |  | 896.8±111.8 cells per 10^6 spleen cells | 111.2±11.8 × 10^3 | −3.6 p > 0.05% | 6.9 ± 0.5 10^−3 | 1336.5±59.0 cells per 10^6 spleen cells | 182.5±7.8 × 10^3 |  | 7.5 ± 0.4 10^−3 | +12.2 p > 0.05% | +10.0 p > 0.05% | marked immunostimulating action | no immunogenic activity | Amount of hemagglutinins (136.5 μg/mouse): 9.3±0.2 Log2 T
CC/C=C\C/C=C\C/C=C\C/C=C\C/C=C\C/C=C\CCC(=O)N[C@@H](Cc1ccc(OP(=O)(O)O)cc1)C(=O)O [Compound 12, N-(cis-4,7,10,13,16,19-docosahexaenoyl)-O-phospho-L-tyrosine] |  | 263.8±23.6 cells per 10^6 spleen cells | 31.8±2.8 × 10^3 | −9.4 p >0.05% | −9.1 p >0.05% | +2.8 p >0.05% | 6.3 ± 0.3 10^−3 |  | 307.8±30.9 cells per 10^6 spleen cells | 40.2±2.7 × 10^3 | +2.8 p > 0.05% | 5.9 ± 0.3 10^−3 | 682.6±33.3 cells per 10^6 spleen cells | 69.6±6.0 × 10^3 | +7.7 p > 0.05% | 6.3 ± 0.4 10^−3 | +5.7 p > 0.05% | +14.9 p > 0.05% | high immunostimulating action | no immunogenic activity | 
CC/C=C\C/C=C\C/C=C\C/C=C\C/C=C\CCCC(=O)NCCOP(=O)(O)O [Compound 13, N-(cis-5,8,11,14,17-eicosapentaenoyl)-O-phospho-2-aminoethanol] |  | 608.2±61.3 cells per 10^6 spleen cells | 48.2±6.5 × 10^3 | −3.2 p > 0.05% | +5.0 p > 0.05% | +7,8 p > 0.05% | 5.4 ± 0.6 10^−3 |  | 525.0±97.2 cells per 10^6 spleen cells | 49.4±6.2 × 10^3 | +5,6 p > 0.05% | 5.7 ± 0.8 10^−3 | 885.9±65.8 cells per 10^6 spleen cells | 68.2±6.9 × 10^3 | +14,4 p > 0.05% | 5.3 ± 0.4 10^−3 | −16.5 p > 0.05% | +7.6 p > 0.65% | high immunostimulating action; also recorded: marked immunostimulating action | no immunogenic activity | 
CC/C=C\C/C=C\C/C=C\CCCCCCCC(=O)NCCOP(=O)(O)O [Compound 17, N-(cis-9,12,15-octadecatrienoyl)-O-phospho-2-aminoethanol] |  | 457.3±40.7 cells per 10^6 spleen cells | 51.1±4.4 × 10^3 | −3.0 p > 0.05% | −7.4 p > 0.05% |  | 5.8 ± 10^−3 |  | 523.8±45.3 cells per 10^6 spleen cells | 63.5±5.1 × 10^3 | +2.6 p > 0.05% | 5.7 ± 10^−3 | 619.6±38.9 cells per 10^6 spleen cells | 71.6±4.7 × 10^3 | +2.6 p > 0.05% | 5.9 ± 10^−3 | +11.1 p > 0.05% | +15.0 p > 0.05% | marked immunostimulating action | no immunogenic activity | Amount of hemagglutinins (45.5 μg/mouse): 7.6 ± 0.2 Log2 T; Amount of hemagglutinins (91 μg/mouse): 7.8 ± 0.3 Log2 T; Amount of hemagglutinins (136.5 μg/mouse): 7.8 ± 0.4 Log2 T
